Where two headings read alike, the source gives them in different places.
Experiments:
[1] = molecular target: bovine synapsin I (Bos taurus, UniProt P17599); assay: ATP-γ35S binding competition assay on purified synapsin I; conditions: for maximal inhibition of ATP-γ35S binding to synapsin I: from curve fitting (lower plateau); for binding to synapsin I (result in words): ATP-γ35S competition, inhibitor 0.1–30 µM
Method: Synapsin I was purified from bovine brain [71] and stored in liquid nitrogen in 200 mM NaCl, 25 mM TrisCl, pH 7.4. […] ATP-γ^35S binding was quantified as previously described. Briefly, aliquots of the samples were spotted onto squares of phosphocellulose paper (Upstate/Millipore, Billerica, MA). The paper squares were extensively washed with deionized water for 30 min, air-dried and analyzed for radioactivity by using the Perkin Elmer Cyclone Plus Phosphor Imager. After subtraction of the background values (samples with no synapsin I), data from individual competition curves were fitted with a sigmoidal dose-response function (f = min +(max–min)/(1+10∧((logEC50-x)*Hillslope)) using the Sigmaplot 8.0 software (SPSS Inc., Chicago, IL) to yield IC50 and maximal inhibition values. Data in the plots are the means ± sem of at least 5 independent experiments.

[2] = tested on: synapsin I / F-actin; assay: F-actin bundling activity of synapsin I, low speed sedimentation assay; format: biochemical, bovine; conditions: staurosporine 5 µM; synapsin I 0.5 µM, F-actin 5 µM; vs samples with F-actin and synapsin I only
Method: Actin was purified from acetone powder of rabbit skeletal muscles, [96] and stored in liquid nitrogen in 2 mM Tris pH 8, 0.2 mM ATP, 0,2 mM CaCl2, 0.125 mM β-mercaptoethanol and 0.005% NaN3 (G-buffer). Before the experiments, both G-actin and synapsin I were prespun for 1 h at 4°C at 300,000× g to remove large aggregates. G-actin was polymerized at room temperature for 1 h in the presence of 100 mM KCl, 1.2 mM MgCl2. […] Pellets were solubilized in sample buffer and analyzed by sodium dodecylsulfate polyacrylamide gel electrophoresis (SDS-PAGE) using 10% acrylamide in the resolving gel. Gels were fixed, stained with Coomassie Blue and destained. Densitometric analysis of the actin bands was carried out by using the ImageQuant system (GE Healthcare) followed by densitometric analysis of the fluorograms and by data interpolation into a standard curve of purified G-actin run in parallel with the unknown samples.

[3] = ATP-γ35S 0.2 µM, purified bovine synapsin I 0.5 µM
[4] = ATP-γ35S 0.2 µM, purified bovine synapsin I 0.5 µM, means ± sem from 5 independent experiments, read-out: IC50, inhibition of ATP-γ35S binding to synapsin I

Row | Compound | maximal inhibition of ATP-γ35S binding to synapsin I [1, 3] | IC50 [1, 4] | binding to synapsin I (result in words) [1] | further results
1 | Nc1ncnc2c1ncn2[C@@H]1O[C@H](COP(=O)(O)OP(=O)(O)OP(=O)(O)O)[C@@H](O)[C@H]1O [ATP] | 95.8±2.2% | 70 ± 10 nM |  | 
2 | CCc1cc(-c2n[nH]c(C)c2-c2ccc3c(c2)OCCO3)c(O)cc1O [CCT018159] |  |  | inactive | 
3 | O=S(=O)(NCCNC/C=C/c1ccc(Br)cc1)c1cccc2cnccc12 [H-89] |  | > 30000 nM |  | 
4 | Cc1nc2sccn2c(=O)c1CCN1CCC(=C(c2ccccc2)c2ccc(F)cc2)CC1 [R59022] |  |  | inactive | 
5 | O=C(O)CN1C(=O)c2c(I)c(I)c(I)c(I)c2C1=O [compound 70159800251] | ca. 70% | 500 nM |  | 
6 | O=c1c(O)c(-c2ccc(O)c(O)c2)oc2cc(O)c(O)c(O)c12 [quercetagetin] | 88.3±4.9% |  |  | IC50 [1]: 150 nM
7 | CN[C@@H]1C[C@H]2O[C@@](C)([C@@H]1OC)n1c3ccccc3c3c4c(c5c6ccccc6n2c5c31)C(=O)NC4 [staurosporine] | 84.3±1.2% |  |  | increase in F-actin/synapsin I bundles recovered by low speed sedimentation [2]: approximately 30%; affinity to bovine synapsin I ([1]; in vitro competition assay, as restated in Discussion): about 0.3 µM
8 | novobiocin |  |  | inactive | 

— publication PMC2922380, “Binding of Protein Kinase Inhibitors to Synapsin I Inferred from Pair-Wise Binding Site Similarity Measurements” (PLoS ONE, 2010)
